# Data: PubChem BioAssay (NCI)
# Several values for one entry are separate records, joined by “and”; a condition that tells them apart may be missing. Identical values can stand only once.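 Compound exposure: 48 hours, 5 concentrations, 96-well plates. GI50: concentration for 50% inhibition of growth. TGI: concentration producing complete growth inhibition.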
# Columns and labels:
# Assay in all cases: DTP human tumour cell line panel, 48 h
# UO-31 renal = test system: UO-31 renal
# SF-295 CNS = test system: SF-295 CNS
# OVCAR-5 ovarian = test system: OVCAR-5 ovarian
# SW-620 colon = test system: SW-620 colon
# SK-OV-3 ovarian = test system: SK-OV-3 ovarian
# HOP-62 NSCLC = test system: HOP-62 NSCLC
# NCI/ADR-RES ovarian = test system: NCI/ADR-RES ovarian
# NCI-H23 lung = test system: NCI-H23 lung
# U251 CNS = test system: U251 CNS
# HCC-2998 colon = test system: HCC-2998 colon
SMILES,GI50 (UO-31 renal),TGI (UO-31 renal),GI50 (SF-295 CNS),TGI (SF-295 CNS),GI50 (OVCAR-5 ovarian),TGI (OVCAR-5 ovarian),GI50 (SW-620 colon),TGI (SW-620 colon),GI50 (SK-OV-3 ovarian),TGI (SK-OV-3 ovarian),GI50 (HOP-62 NSCLC),TGI (HOP-62 NSCLC),GI50 (NCI/ADR-RES ovarian),TGI (NCI/ADR-RES ovarian),GI50 (NCI-H23 lung),TGI (NCI-H23 lung),GI50 (U251 CNS),TGI (U251 CNS),GI50 (HCC-2998 colon),TGI (HCC-2998 colon)
COc1cc2c3c(n(C)c(=O)c2cc1OC)-c1cc2c(cc1/C3=C\CCCN)OCO2,3.18 µM,20.3 µM,1.83 µM,8.15 µM,3.75 µM,26.2 µM,2.33 µM,32.9 µM,41 µM,> 100 µM,3.64 µM,26.6 µM,14.5 µM,74.4 µM,8.07 µM,> 100 µM,1.66 µM,10.6 µM,10.4 µM,32.3 µM
CCN1CCN(c2nc(C)cc(N(CCNc3ccnc4cc(Cl)ccc34)Cc3ccc4c(c3)OCO4)n2)CC1,1.36 µM,2.72 µM,1.76 µM,3.38 µM,3.58 µM,13.6 µM,1.62 µM,3.55 µM,2.99 µM,8.73 µM,2.21 µM,11.5 µM,2.82 µM,10.8 µM,3.44 µM,14.2 µM,1.56 µM,3.12 µM,2.03 µM,3.96 µM
COc1cc(OC)cc(-c2cc(=O)c3c(OC)c(OC)c(OC)c(OC)c3o2)c1,,> 100 µM,,69.8 µM,,> 100 µM,,> 100 µM,,54.2 µM,,> 100 µM,,> 100 µM,,> 100 µM,,> 100 µM,,> 100 µM
COc1ccc([C@H]2[C@@H](F)C(=O)N2c2cc(OC)c(OC)c(OC)c2)cc1F,0.171 µM,> 100 µM,0.0535 µM,> 100 µM,0.423 µM,> 100 µM,0.0562 µM,> 100 µM,3.45 µM,> 100 µM,0.511 µM,> 100 µM,0.0424 µM,> 100 µM,0.273 µM,> 100 µM,0.236 µM,> 100 µM,0.406 µM,> 100 µM
OCc1ccc(-c2ccc(-c3ccc(CO)s3)o2)s1,,> 84.7 µM,,74.1 µM,,0.102 µM,,> 100 µM,,39.2 µM,,17.2 µM,,71.5 µM,,> 90.9 µM,,23.4 µM,,4.02 µM
Cc1cc(O)c(/C=N/C(=S)NCc2ccccc2)c(=O)o1,,> 100 µM,,> 100 µM,,> 100 µM,,> 100 µM,,> 100 µM,,> 100 µM,,> 100 µM,,> 100 µM,,> 100 µM,,> 100 µM
Nc1ncnc2n[nH]c(Nc3ccc(F)cc3)c12,5.93 µM,> 100 µM,> 100 µM,> 100 µM,60 µM,> 100 µM,18.2 µM,> 100 µM,6.93 µM,> 100 µM,64.8 µM,> 100 µM,65.3 µM,> 100 µM,67.8 µM,> 100 µM,28.6 µM,> 100 µM,51.9 µM,> 100 µM
O=C(CCc1nnc2sc(-c3ccc(Cl)cc3Cl)nn12)c1nc2ncccc2[nH]1,1.13 µM,2.33 µM,1.83 µM,3.44 µM,2.33 µM,5.29 µM,1.56 µM,3.68 µM,21.5 µM,58 µM,2.18 µM,6.77 µM,2.71 µM,9.12 µM,1.76 µM,4.41 µM,1.92 µM,3.67 µM,1.77 µM,3.32 µM
NC1(C(=O)OCc2ccccc2)CCCC1,,43.3 µM,,34.7 µM,,85.7 µM,,> 100 µM,,71.1 µM,,46.7 µM,,> 100 µM,,43.6 µM,,40.3 µM,,76.7 µM
C=C1C(=O)O[C@H]2[C@H]1CC/C(COC(=O)c1c[nH]c3ccccc13)=C\CC[C@@]1(C)O[C@@H]21,0.165 µM,0.313 µM,1.94 µM,4.47 µM,0.405 µM,2.1 µM,0.234 µM,0.752 µM,2.24 µM,5.59 µM,0.825 µM,2.41 µM,0.397 µM,11 µM,1.29 µM,3.76 µM,0.616 µM,1.93 µM,0.32 µM,1.08 µM
O=C(/C=C/c1ccc(Cl)cc1)c1ccc(Nc2ccnc3cc(Cl)ccc23)cc1,> 74.7 µM,> 100 µM,,> 48.8 µM,22.1 µM,68.5 µM,6.05 µM,> 67.5 µM,> 100 µM,> 100 µM,99.2 µM,> 100 µM,> 100 µM,> 100 µM,> 100 µM,> 100 µM,28.8 µM,> 100 µM,> 80.5 µM,> 100 µM
COc1c(Cl)c(=O)oc2ccc(Cl)cc12,,> 100 µM,,> 100 µM,,> 100 µM,,> 100 µM,,> 100 µM,,> 100 µM,,> 100 µM,,> 100 µM,,> 100 µM,,> 100 µM
Cn1cnc([N+](=O)[O-])c1S(=O)(=O)Oc1cccc2ccccc12,1.4 µM,4.33 µM,21.2 µM,> 65.3 µM,7.55 µM,27.8 µM,1.36 µM,2.89 µM,46.9 µM,> 100 µM,2.56 µM,5.45 µM,7.59 µM,33 µM,10 µM,32.1 µM,8.89 µM,34.7 µM,13.1 µM,26.6 µM
CSc1nc(NC2OCC(OC(C)=O)C(OC(C)=O)C2OC(C)=O)c(N=CC=Nc2c(NC3OCC(OC(C)=O)C(OC(C)=O)C3OC(C)=O)nc(SC)[nH]c2=O)c(=O)[nH]1 (centres undefined),,> 100 µM,,> 100 µM,,> 100 µM,,> 100 µM,,80.1 µM,,> 92.6 µM,,> 100 µM,,> 100 µM,,> 100 µM,,> 100 µM
O=C(CSc1ccc(Cl)cc1)Nc1ccc(-c2nc3ccccc3s2)c(Cl)c1,2.29 µM,22.9 µM,2 µM,5.42 µM,11.6 µM,55.4 µM,3.67 µM,83.4 µM,13.7 µM,44.1 µM,5.91 µM,24.8 µM,4.39 µM,32.6 µM,2.23 µM,5.56 µM,3.71 µM,18.7 µM,3.09 µM,16.3 µM
CCOC(=O)c1cc2nc3ccccc3c(=O)n2c2ccccc12,,> 10 µM,,> 10 µM,,> 10 µM,,> 10 µM,,> 10 µM,,> 10 µM,,> 10 µM,,> 10 µM,,> 10 µM,,> 10 µM
Cc1cc2c(cc1Cl)SC(N(N(C)C)S(=O)(=O)c1ccc(Cl)cc1)=NS2(=O)=O,28.3 µM,> 100 µM,30.3 µM,> 100 µM,53.8 µM,> 100 µM,32.5 µM,> 100 µM,33.8 µM,> 100 µM,29.6 µM,96.1 µM,28 µM,> 100 µM,31.2 µM,> 100 µM,26.3 µM,> 100 µM,17 µM,44.6 µM
CN(C)CCSC1=Nc2ccc(Cl)cc2C(c2ccccc2Cl)=NC1,9.23 µM and 53.4 µM,21.8 µM and > 100 µM,16 µM and 68.7 µM,31.5 µM and > 100 µM,18.6 µM and > 100 µM,34.4 µM and > 100 µM,16.6 µM and 33.5 µM,34 µM and > 100 µM,16.9 µM and 63.1 µM,33.6 µM and > 100 µM,15.8 µM and > 100 µM,32.1 µM and > 100 µM,15 µM and 42.4 µM,37.1 µM and > 100 µM,15 µM and 97.1 µM,30.2 µM and > 100 µM,13.6 µM and 89.5 µM,28.1 µM and > 100 µM,13.4 µM and > 100 µM,30.3 µM and > 100 µM
O=S(=O)(CCn1c(Sc2ccccc2)c(Sc2ccccc2)c2ccccc21)c1ccccc1,,> 100 µM,,> 100 µM,,> 100 µM,,> 100 µM,,> 100 µM,,> 100 µM,,> 100 µM,,> 100 µM,,> 100 µM,,> 100 µM
COc1ccc(-c2nnc(COc3ccc(NC(=O)Nc4cc(C(F)(F)F)cc(C(F)(F)F)c4)cc3F)o2)cc1,2.09 µM,7.84 µM,2.11 µM,5.21 µM,2.76 µM,9.49 µM,2.19 µM,5.72 µM,3.76 µM,12.7 µM,2.69 µM,7.12 µM,1.91 µM,5.16 µM,1.8 µM,4.38 µM,1.54 µM,3.45 µM,2.42 µM,5.92 µM
CCN(CC)c1ccc(-c2cc(-c3cc(OC)c(OC)c(OC)c3)nc(N3CCOCC3)c2C#N)cc1,2.99 µM,> 100 µM,0.809 µM,3.98 µM,1.42 µM,> 68.2 µM,3.3 µM,> 100 µM,3.22 µM,> 100 µM,2.24 µM,16.5 µM,0.709 µM,27.8 µM,5.25 µM,> 100 µM,2.48 µM,> 100 µM,1.97 µM,11.1 µM
Fc1cc2[nH]ncc2c2c3c(c(-c4cn[nH]c4)nc12)CCCC3,0.896 µM,3.87 µM,1.44 µM,6.44 µM,2.13 µM,12.2 µM,0.451 µM,> 26.6 µM,0.287 µM,1.24 µM,1.6 µM,> 21 µM,2.38 µM,7.9 µM,0.958 µM,4.69 µM,0.55 µM,13.4 µM,1.52 µM,5.75 µM
CN1CCN(CCCn2c(=O)c3sc4ncccc4c3n3nnc(-c4ccccc4)c23)CC1,5.1 µM,12 µM,5.63 µM,12.4 µM,8.85 µM,16.9 µM,5.34 µM,11.5 µM,8.88 µM,15.9 µM,8.19 µM,15.3 µM,7.19 µM,14.2 µM,8.07 µM,15.3 µM,5.21 µM,11.2 µM,6.77 µM,13.4 µM
COc1ccc(-c2nnc(COc3ccc(C(=O)/C=C/c4ccco4)cc3)o2)cc1,2.32 µM,6.69 µM,3.75 µM,14.7 µM,5.85 µM,19.1 µM,1.91 µM,4.11 µM,12.2 µM,24.6 µM,2.5 µM,7.23 µM,8.62 µM,25 µM,7.02 µM,20.5 µM,1.62 µM,3.08 µM,2.32 µM,5.26 µM
O=C(Nc1ccc(Cl)cc1)c1cccc(NC2=C(Cl)C(=O)N(Cc3ccccc3)C2=O)c1,13 µM,30.4 µM,15.5 µM,61.9 µM,13.4 µM,36.6 µM,16.3 µM,43.6 µM,29.6 µM,> 100 µM,10.3 µM,22 µM,10.3 µM,24.3 µM,4.81 µM,41.2 µM,9.92 µM,21.5 µM,3.83 µM,20 µM
O=c1c2sccc2n(CC2COc3ccccc3O2)c(=O)n1O (centres undefined),16 µM,97.5 µM,9.51 µM,> 100 µM,40 µM,> 100 µM,3.76 µM,> 100 µM,32.8 µM,> 100 µM,8.41 µM,> 100 µM,23 µM,> 100 µM,6.88 µM,34.4 µM,7.52 µM,> 100 µM,7.6 µM,> 100 µM
CC[C@H](Nc1ncnc2nc[nH]c12)c1oc2ccccc2c(=O)c1-c1cccc(F)c1,5.93 µM,58 µM,18.4 µM,> 100 µM,42.5 µM,> 100 µM,32.5 µM,> 100 µM,24.1 µM,> 100 µM,33.8 µM,> 100 µM,21.3 µM,> 100 µM,29.7 µM,> 100 µM,32.2 µM,> 100 µM,35.7 µM,> 100 µM
